Measured values: PubChem BioAssay (NCI)
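Where inhibition never reached the appropriate level, the endpoint shown equals the highest concentration tested. Otherwise, values were interpolated linearly from a five-concentration, 48-hour dose response in 96-well plates. GI50 = concentration required for 50% inhibition of growth. The concentration for full growth arrest is given as TGI.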

What was measured:
Assay in all cases: growth of human tumour cells (NCI), 48 h
CCRF-CEM leukemia = test system: CCRF-CEM leukemia
NCI-H460 lung = test system: NCI-H460 lung
OVCAR-5 ovarian = test system: OVCAR-5 ovarian
M14 melanoma = test system: M14 melanoma
OVCAR-3 ovarian = test system: OVCAR-3 ovarian
SK-MEL-28 melanoma = test system: SK-MEL-28 melanoma
SK-MEL-5 melanoma = test system: SK-MEL-5 melanoma
OVCAR-8 ovarian = test system: OVCAR-8 ovarian
HOP-62 NSCLC = test system: HOP-62 NSCLC
786-0 renal = test system: 786-0 renal

Structure (SMILES)	GI50 (CCRF-CEM leukemia)	TGI (CCRF-CEM leukemia)	GI50 (NCI-H460 lung)	TGI (NCI-H460 lung)	GI50 (OVCAR-5 ovarian)	TGI (OVCAR-5 ovarian)	GI50 (M14 melanoma)	TGI (M14 melanoma)	GI50 (OVCAR-3 ovarian)	TGI (OVCAR-3 ovarian)	GI50 (SK-MEL-28 melanoma)	TGI (SK-MEL-28 melanoma)	GI50 (SK-MEL-5 melanoma)	TGI (SK-MEL-5 melanoma)	GI50 (OVCAR-8 ovarian)	TGI (OVCAR-8 ovarian)	GI50 (HOP-62 NSCLC)	TGI (HOP-62 NSCLC)	GI50 (786-0 renal)	TGI (786-0 renal)
CCOC(=O)c1cc2c(cc1Cl)SC(=Nc1ccccc1)N(S(=O)(=O)c1ccc(Br)s1)S2(=O)=O	4.51 µM	18.8 µM	19.4 µM	51.1 µM	22 µM	50.8 µM	15.2 µM	35 µM	12.2 µM	24.7 µM	24.1 µM	64.5 µM	12.1 µM	25.2 µM	17 µM	39.3 µM	23.3 µM	44.2 µM	17.5 µM	32.6 µM
COc1cc(-c2nn(-c3cccc(NC(=O)CCN4CCN(Cc5ccccc5)CC4)c3)cc2-c2ccncc2)ccc1Cl	0.691 µM	> 100 µM	0.38 µM	1.46 µM	3.02 µM	> 100 µM	0.696 µM	2.21 µM	0.395 µM	1.77 µM	1.33 µM	2.84 µM	1.1 µM	2.31 µM	2.68 µM	11.1 µM	1.38 µM	12.4 µM	1.33 µM	3.02 µM
Nc1nc(N)c(CCCCc2ccccc2)c(N)n1		> 100 µM		> 100 µM		> 100 µM		> 100 µM		> 100 µM		> 100 µM		> 100 µM		> 100 µM		> 100 µM		> 100 µM
N/C(=N\OC(=O)c1ccccc1)C(Cc1ccccc1)C(=O)NOC(=O)c1ccccc1 (stereo not given)	2.18 µM	6.07 µM	1.76 µM	3.71 µM	9.1 µM	24.3 µM	3.12 µM	10.8 µM	1.8 µM	4.1 µM	7.76 µM	22.6 µM	2.72 µM	9.03 µM	2.11 µM	6.53 µM	1.37 µM	2.83 µM	3.04 µM	8 µM
O=C(/C=C/c1ccc(Cl)c(Cl)c1)c1cccc2ccccc12		7.18 µM		19.3 µM		26.9 µM		30.9 µM		18.6 µM		33.5 µM		34.7 µM		4.74 µM		31.4 µM		13.2 µM
O=C1C(OCCOc2ccccc2)=C(OCCOc2ccccc2)C(=O)c2ccccc21	> 100 µM	> 100 µM	3.05 µM	10.5 µM	> 100 µM	> 100 µM			6.5 µM	> 100 µM	16.5 µM	> 100 µM	1.92 µM	4.86 µM	> 100 µM	> 100 µM	9.26 µM	> 100 µM	34.6 µM	> 100 µM
CC1=C(C(=O)Nc2ccc(Cl)c(Cl)c2)C(c2ccc([N+](=O)[O-])cc2)C(C(=O)Nc2ccc(Cl)c(Cl)c2)=C(C)N1				6.15 µM		10 µM		3.82 µM		4.56 µM		9.93 µM		3.39 µM		8.58 µM		8.7 µM		11.1 µM
O=C1c2ccccc2N2OC3(N4CCCC4)CCCCC3C12c1ccccc1 (stereo not given)		47.5 µM						34.6 µM				76.2 µM		32 µM		32.9 µM		> 100 µM		31.6 µM
Fc1cccc(F)c1C(Nc1nncs1)Nc1nncs1				> 100 µM		> 100 µM		> 100 µM		> 100 µM		> 100 µM		> 100 µM		> 100 µM		> 100 µM		> 100 µM
CCC(=O)Nc1ccc(N2C(=O)/C(=C/c3ccc(OC)cc3)N=C2c2ccccc2)cc1	> 50 µM	> 50 µM	2.1 µM	> 50 µM	> 50 µM	> 50 µM	8.6 µM	43.3 µM	> 50 µM	> 50 µM	14.6 µM	> 50 µM	7.16 µM	> 50 µM	7.38 µM	> 50 µM			16.5 µM	> 50 µM
O=C1C=C(O)C(=Cc2c(O)cc(O)cc2O)C(O)=C1		> 100 µM		> 100 µM		> 100 µM		> 100 µM		> 100 µM				> 100 µM		> 100 µM		> 100 µM		> 100 µM
CC(CO)(Nc1ccc([N+](=O)[O-])cc1[N+](=O)[O-])C(=O)O (stereo not given)				28.8 µM		89 µM		> 100 µM		42 µM		43.5 µM		44.5 µM		> 100 µM		> 100 µM		> 100 µM
N#CNc1nc(N)c(-c2ccc(Cl)cc2)c(C(=O)Nc2nccs2)n1				> 100 µM		> 100 µM		> 100 µM		> 100 µM		> 100 µM		> 100 µM		> 100 µM		> 100 µM		> 100 µM
Cc1[nH]nc(-c2ccon2)c1N=O				> 100 µM		35.1 µM		43.5 µM		33.7 µM		43.1 µM		34.3 µM		31.6 µM		41.9 µM		39.2 µM
Cn1ccnc1Oc1ccc(Cl)cc1				> 100 µM		35.7 µM		37.2 µM				27.4 µM		27.1 µM		22.4 µM		65.6 µM		24.7 µM
Cc1cc2c(c(C(N)=O)c1C)-c1cc(Cl)cc(Cl)c1C2=O		> 100 µM		> 100 µM		> 100 µM		> 100 µM		> 100 µM		> 100 µM				> 100 µM		> 100 µM		> 100 µM
O=C1OC(=O)c2c1c(-c1ccccc1)nc1ccccc21		> 100 µM		> 100 µM				> 100 µM		> 100 µM		> 100 µM		> 100 µM		> 100 µM		> 100 µM		> 100 µM

Structure (SMILES)	GI50 (CCRF-CEM leukemia)	TGI (CCRF-CEM leukemia)	GI50 (NCI-H460 lung)	TGI (NCI-H460 lung)	GI50 (OVCAR-5 ovarian)	TGI (OVCAR-5 ovarian)	GI50 (M14 melanoma)	TGI (M14 melanoma)	GI50 (OVCAR-3 ovarian)	TGI (OVCAR-3 ovarian)	GI50 (SK-MEL-28 melanoma)	TGI (SK-MEL-28 melanoma)	GI50 (SK-MEL-5 melanoma)	TGI (SK-MEL-5 melanoma)	GI50 (OVCAR-8 ovarian)	TGI (OVCAR-8 ovarian)	GI50 (HOP-62 NSCLC)	TGI (HOP-62 NSCLC)	GI50 (786-0 renal)	TGI (786-0 renal)
O=Cc1ccc2c(c1I)OCO2		> 100 µM		> 100 µM		> 100 µM		> 100 µM		> 100 µM				> 100 µM		> 100 µM		> 100 µM		> 100 µM
ClC1=C(Cl)C(Cl)(Cl)c2c3c(c4c(c21)C(Cl)(Cl)C(Cl)=C4Cl)C(Cl)(Cl)C(Cl)=C3Cl		> 100 µM		> 100 µM				> 100 µM		> 100 µM		> 100 µM		> 100 µM		> 100 µM		> 100 µM		> 100 µM
Cc1ccc(C2C3Cc4ccccc4C3=NN2c2ccc(S(=O)(=O)/N=c3\scc(-c4ccccc4)n3-c3ccccc3)cc2)cc1 (stereo not given)	17.1 µM	44 µM	18.1 µM	45.1 µM			30.6 µM	> 100 µM	16.6 µM	43.7 µM			13.2 µM	26 µM	21.9 µM	58.5 µM	40.2 µM	> 100 µM	32 µM	> 100 µM
Cc1ccccc1-n1c(N)c(-c2nc3ccccc3[nH]2)sc1=S		> 100 µM				> 100 µM		36.5 µM		41.1 µM		39.3 µM		36.6 µM		84.2 µM		46 µM		81.3 µM
COc1cc2cc(Oc3ccc(NC(=O)c4ccc(Cl)c(Cl)c4)cc3)c(C)nc2cc1OC	4.44 µM	> 100 µM	25.4 µM	> 100 µM	> 100 µM	> 100 µM			9.34 µM	> 100 µM	> 100 µM	> 100 µM	4.99 µM	> 100 µM	> 100 µM	> 100 µM	> 100 µM	> 100 µM	> 100 µM	> 100 µM
Cc1ccc(NC(=O)C(=O)C(C(=O)/C=C/c2ccccc2)C2OC(=O)c3ccccc32)c(C)c1 (stereo not given)		> 100 µM		> 100 µM		> 100 µM		> 100 µM		> 100 µM		> 100 µM		> 100 µM				> 100 µM		> 100 µM
O=C(O)CCNS(=O)(=O)c1ccc([N+](=O)[O-])cc1		> 100 µM		> 100 µM		> 100 µM		> 100 µM		> 100 µM		> 100 µM		> 100 µM		> 100 µM				> 100 µM
C[n+]1c2ccccc2nc2c(N)cc(N)cc21	4.63 µM	48.3 µM	16.8 µM	59 µM	> 100 µM	> 100 µM	19.1 µM	76.3 µM	3.69 µM	22.8 µM	10.3 µM	24.1 µM	2.56 µM	7.09 µM			3.48 µM	38.1 µM	5.43 µM	> 100 µM
COc1ccc(/C=C(\C)[N+](=O)[O-])cc1OC			2.54 µM	6.56 µM	1.73 µM	3.31 µM	1.96 µM	3.95 µM	1.87 µM	3.29 µM	1.71 µM	3.44 µM	2.19 µM	5.11 µM	2.61 µM	6.29 µM	5.08 µM	16.4 µM	1.93 µM	3.57 µM
CN1CCc2nc3sc(C(N)=O)c(N)c3c(-c3cccs3)c2C1	3.77 µM	> 100 µM	3.71 µM	> 100 µM			4.19 µM	19.4 µM	2.16 µM	6.23 µM	2.91 µM	9.59 µM	1.43 µM	5.24 µM	2.7 µM	> 100 µM	3.27 µM	> 100 µM	4.41 µM	> 100 µM
C[C@@H]1O[C@@H](O[C@@H]2[C@@H](O)[C@H](OCCc3ccc(O)c(O)c3)O[C@H](CO)[C@H]2OC(=O)/C=C/c2ccc(O)c(O)c2)[C@H](O)[C@H](OC2OC[C@](O)(CO)[C@H]2O)[C@H]1O (stereo not given in full)			> 100 µM	> 100 µM	> 100 µM	> 100 µM	> 100 µM	> 100 µM	35 µM	> 100 µM	> 100 µM	> 100 µM	> 100 µM	> 100 µM	18.7 µM	40 µM	> 100 µM	> 100 µM	84.7 µM	> 100 µM
COc1ccc(OC(=O)CC2Cc3cc(OC)c(OC)c(OC)c3-c3ccc(SC)c(=O)cc32)cc1 (stereo not given)		10.1 µM		4.99 µM				> 100 µM				98.9 µM		13 µM		> 37.1 µM		> 39 µM		> 36 µM
C[CH2][Hg][S]c1ccccc1C(=O)O	0.291 µM	2.74 µM	2.64 µM	8.98 µM	1.77 µM	3.26 µM	1.36 µM	2.74 µM	0.871 µM	2.09 µM	1.71 µM	3.69 µM					2.58 µM	12.3 µM	1.59 µM	2.95 µM
CC(C)(C)c1cc2nc(c1)C(C(F)(F)F)(C(F)(F)F)OB(Br)OC2(C(F)(F)F)C(F)(F)F		0.677 µM				8.39 µM		3.38 µM				18.6 µM				0.427 µM		3.14 µM		1.81 µM
C=C1[C@@H](O)O[C@H]2[C@H]1C[C@H](OC(C)=O)[C@]13C(=O)O[C@H]4C[C@](C)(O)[C@H]([C@H]41)C31C=C(C)[C@]2(O)O1	18.9 µM	> 100 µM	32.5 µM	96.9 µM	21.7 µM	48 µM			7.43 µM	32.6 µM	61 µM	> 100 µM			22.7 µM	58.8 µM			22.4 µM	49.1 µM
N#CCCNc1nonc1-c1nc2ccccc2n1CC(=O)c1ccc(NC(=O)[C@@H](N)CCCCN)cc1	0.0368 µM	> 100 µM	0.0344 µM	> 100 µM	0.0644 µM	> 100 µM	0.0199 µM	0.0685 µM	0.0235 µM	0.0542 µM			0.03 µM	0.197 µM	0.0554 µM	> 100 µM	0.0562 µM	> 100 µM	0.0557 µM	> 100 µM
CC1=NN(c2ccccc2)C(=O)/C1=C\c1ccc([N+](=O)[O-])cc1		49.5 µM		> 100 µM		50.8 µM		> 100 µM				> 100 µM		54.5 µM		> 100 µM				85.8 µM
